Data set [1] concerns the target T1, Human immunodeficiency virus type 1 protease (Human immunodeficiency virus 1, UniProt Q72874). The experiment in a line: Inhibition of HIV-1 protease.
Data set [2] in a line: Oxidative stability in sodium phosphate buffer assessed as relative rate constant. It is filed as physicochemical.
Data set [3] can be described thus: Oxidative stability in sodium phosphate buffer assessed as observed rate constant. It is filed as physicochemical.
The next data set addresses Protease (Human immunodeficiency virus 1, UniProt Q9YQ12, D30N). Kind of data set: Inhibition of HIV-1 protease D30N mutant.
Data set [4] is described as follows: Oxidative stability of compound in PBS by UV visible spectrophotometer analysis. The format is physicochemical. Particulars: buffer.
The target of data set [5] is T1, Human immunodeficiency virus type 1 protease. The experiment in a line: Inhibition of HIV-1 protease by fluorescence assay.

Our source for the Ki and K values is ChEMBL document CHEMBL5223182, “Inhibition of HIV-1 Protease by a Boronic Acid with High Oxidative Stability” (ACS Med Chem Lett, 2023).

Protease, sequence (Q9YQ12 entry or part of it D30N): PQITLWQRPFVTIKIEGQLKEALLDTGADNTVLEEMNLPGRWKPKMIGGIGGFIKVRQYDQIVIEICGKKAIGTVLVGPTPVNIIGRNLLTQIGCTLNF

As for `CC(C)CN(C[C@@H](O)[C@H](Cc1ccccc1)NC(=O)O[C@H]1CO[C@H]2OCC[C@H]21)S(=O)(=O)c1ccc2c(c1)C(=O)O[B-]2(O)O`, the values for the Ki (in data set [1]; at Protease) were 10 pM and 7 pM, respectively. In addition, the figures for the K in data set [2], in data set [3] and in data set [4] were 0.021, 0.0026 M⁻¹ s⁻¹ and 0.00015 M⁻¹ s⁻¹, respectively.
Take `CC(C)CN(C[C@@H](O)[C@H](Cc1ccccc1)NC(=O)O[C@H]1CO[C@H]2OCC[C@H]21)S(=O)(=O)c1ccc(B(O)O)cc1`: the K in data set [2] worked out at 1; in data set [3], 0.12 M⁻¹ s⁻¹; in data set [4] it was 2.4 M⁻¹ s⁻¹. Moreover, in data set [5], affinity was put at a Ki of 0.5 pM.

Usually Ki stands for a measure of affinity in units of concentration, obtained from inhibition or displacement.
